Reference: publication doi:10.1101/2024.07.16.603720v1 (biorxiv, 2024)
Values after ≈ are worked out from the molar mass of the structure shown.

T1: sDacC (sPBP5/6) (Acinetobacter baumannii, UniProt G1C735)
T1 sequence (G1C735 20-367): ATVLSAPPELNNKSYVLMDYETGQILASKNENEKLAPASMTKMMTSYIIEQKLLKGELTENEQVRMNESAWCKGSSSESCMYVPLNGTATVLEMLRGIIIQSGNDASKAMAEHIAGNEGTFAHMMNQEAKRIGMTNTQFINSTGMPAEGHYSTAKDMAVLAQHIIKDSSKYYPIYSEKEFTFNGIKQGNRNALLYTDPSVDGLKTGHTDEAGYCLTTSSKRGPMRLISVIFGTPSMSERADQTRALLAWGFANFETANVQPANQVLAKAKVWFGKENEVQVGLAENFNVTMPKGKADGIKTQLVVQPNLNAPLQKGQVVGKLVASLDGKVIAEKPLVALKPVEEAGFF

T2: sDacD (sPBP6b) (Acinetobacter baumannii, UniProt A0ABX6CI93)
T2 sequence (A0ABX6CI93 22-409): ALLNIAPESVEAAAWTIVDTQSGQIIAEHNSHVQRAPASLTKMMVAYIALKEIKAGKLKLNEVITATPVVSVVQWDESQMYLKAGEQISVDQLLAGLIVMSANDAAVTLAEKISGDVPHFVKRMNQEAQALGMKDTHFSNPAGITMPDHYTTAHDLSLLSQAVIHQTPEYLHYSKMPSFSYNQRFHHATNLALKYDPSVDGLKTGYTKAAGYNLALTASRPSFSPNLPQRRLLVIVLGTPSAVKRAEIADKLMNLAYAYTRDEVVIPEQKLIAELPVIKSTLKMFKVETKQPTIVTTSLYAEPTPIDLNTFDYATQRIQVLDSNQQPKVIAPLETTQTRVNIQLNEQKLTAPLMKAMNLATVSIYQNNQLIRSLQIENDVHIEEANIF


Experiments:
[1] = test system: A. baumannii AB19606 WT (19606); assay: microbe, parasite or virus in culture; design: species or system Acinetobacter baumannii AB19606; settings: Acinetobacter baumannii, read-out: MIC
sDacC (sPBP5/6) [2] = target: T1, sDacC (sPBP5/6); assay: Bocillin FL competition, SDS-PAGE fluorescence; format: binding
sDacD (sPBP6b) [3] = target: T2, sDacD (sPBP6b); assay: Bocillin FL competition, SDS-PAGE fluorescence; format: binding
sDacC (sPBP5/6) [4] = target: T1, sDacC (sPBP5/6); assay: biochemical
sDacD (sPBP6b) [5] = target: T2, sDacD (sPBP6b); assay: biochemical
[6] = substrate: NC(=O)c1cc[n+](CC2=C(C(=O)O)N3C(=O)[C@@H](NC(=O)[C@@H](c4ccccc4)S(=O)(=O)[O-])[C@H]3SC2)cc1; assay: purified protein, by the assay type; settings: pH 7.4; 30.0 °C
[7] = substrate: C[C@@H](O)[C@H]1C(=O)N2C(C(=O)O)=C(S[C@@H]3CN[C@H](C(=O)N(C)C)C3)[C@H](C)[C@H]12; assay: purified protein, by the assay type; settings: pH 7.4; 30.0 °C
[8] = substrate: C[C@@H](O)[C@H]1C(=O)N2C(C(=O)O)=C(S[C@@H]3CN[C@H](CNS(N)(=O)=O)C3)[C@H](C)[C@H]12; assay: purified protein, by the assay type; settings: pH 7.4; 30.0 °C
[9] = substrate: CC(C)(O/N=C(\C(=O)N[C@@H]1C(=O)N2C(C(=O)[O-])=C(C[n+]3ccccc3)CS[C@H]12)c1csc(N)n1)C(=O)O; assay: purified protein, by the assay type; settings: pH 7.4; 30.0 °C
purified protein [10] = substrate: CO/N=C(\C(=O)N[C@@H]1C(=O)N2C(C(=O)O)=C(COC(C)=O)CS[C@H]12)c1csc(N)n1; assay: purified protein; settings: 10 mM phosphate, pH 7.4, 30 °C
purified protein [11] = substrate: C[C@@H](O)[C@H]1C(=O)N2C(C(=O)O)=C(SCCN=CN)C[C@H]12; assay: purified protein; settings: 10 mM phosphate, pH 7.4, 30 °C
purified protein [12] = substrate: CC1(C)S[C@@H]2[C@H](NC(=O)[C@H](C(=O)O)c3ccsc3)C(=O)N2[C@H]1C(=O)O; assay: purified protein; settings: 10 mM phosphate, pH 7.4, 30 °C
purified protein [13] = substrate: CC1(C)S[C@@H]2[C@H](NC(=O)Cc3ccccc3)C(=O)N2[C@H]1C(=O)O; assay: purified protein; settings: 10 mM phosphate, pH 7.4, 30 °C

Row | MIC [1] [µg/mL] | IC50 (sDacC (sPBP5/6) [2]) [µM] | IC50 (sDacD (sPBP6b) [3]) [µM] | Molecule | also measured
1 | 1000 (≈ 2740 µM) | – | – | CC1(C)S[C@@H]2[C@H](NC(=O)[C@H](N)c3ccc(O)cc3)C(=O)N2[C@H]1C(=O)O [AMX, Amoxicillin] | –
2 | 16 (≈ 29.3 µM) | – | – | CC(C)(O/N=C(\C(=O)N[C@@H]1C(=O)N2C(C(=O)[O-])=C(C[n+]3ccccc3)CS[C@H]12)c1csc(N)n1)C(=O)O [CAZ, Ceftazidime] | –
3 | – | 20.9 | 52.8 | C=CC1=C(C(=O)O)N2C(=O)[C@@H](NC(=O)/C(=N\OCC(=O)O)c3csc(N)n3)[C@H]2SC1 [Cefixime] | –
4 | 64 (≈ 141 µM) | – | – | CO/N=C(\C(=O)N[C@@H]1C(=O)N2C(C(=O)O)=C(COC(C)=O)CS[C@H]12)c1csc(N)n1 [Cefotaxime] | –
5 | 250 (≈ 469 µM) | 6.3 | 8.6 | NC(=O)c1cc[n+](CC2=C(C(=O)[O-])N3C(=O)[C@@H](NC(=O)[C@@H](c4ccccc4)S(=O)(=O)O)[C@H]3SC2)cc1 [Cefsulodin] | –
6 | 500 (≈ 1180 µM) | 12.9 | 161 | CO/N=C(\C(=O)N[C@@H]1C(=O)N2C(C(=O)O)=C(COC(N)=O)CS[C@H]12)c1ccco1 [Cefuroxime] | –
7 | – | – | 5.8 | O=C(O)[C@H]1/C(=C/CO)O[C@@H]2CC(=O)N21 [Clavulanic acid] | –
8 | 1.6 (≈ 3.8 µM) | 9.2 | 1.7 | C[C@@H](O)[C@H]1C(=O)N2C(C(=O)O)=C(S[C@@H]3CN[C@H](CNS(N)(=O)=O)C3)[C@H](C)[C@H]12 [Doripenem] | –
9 | 500 (≈ 1170 µM) | – | – | CO[C@@]1(NC(=O)Cc2cccs2)C(=O)N2C(C(=O)O)=C(COC(N)=O)CS[C@@H]21 [FOX, Cefoxitin] | –
10 | 1.6 (≈ 4.17 µM) | 15.7 | 2.7 | C[C@@H](O)[C@H]1C(=O)N2C(C(=O)O)=C(S[C@@H]3CN[C@H](C(=O)N(C)C)C3)[C@H](C)[C@H]12 [Meropenem] | –
11 | 500 (≈ 1250 µM) | 95.9 | 417 | Cc1onc(-c2ccccc2)c1C(=O)N[C@@H]1C(=O)N2[C@@H]1SC(C)(C)[C@@H]2C(=O)O [Oxacillin] | –
12 | 500 (≈ 966 µM) | – | – | CCN1CCN(C(=O)N[C@@H](C(=O)N[C@@H]2C(=O)N3[C@@H]2SC(C)(C)[C@@H]3C(=O)O)c2ccccc2)C(=O)C1=O [PIP, Piperacillin] | IC50 (sDacC (sPBP5/6) [4]): 539 µM; IC50 (sDacD (sPBP6b) [5]): 3280 µM
13 | > 2000 | – | – | CC1(C)S[C@@H]2[C@H](NC(=O)Cc3ccccc3)C(=O)N2[C@H]1C(=O)O [Penicillin G] | –
14 | – | – | 3.8 | CC1(C)[C@H](C(=O)O)N2C(=O)C[C@H]2S1(=O)=O [Sulbactam] | IC50 (sDacC (sPBP5/6) [4]): 184 µM
15 | – | – | – | C[C@]1(Cn2ccnn2)[C@H](C(=O)O)N2C(=O)C[C@H]2S1(=O)=O [Tazobactam] | IC50 (sDacC (sPBP5/6) [4]): 1830 µM; IC50 (sDacD (sPBP6b) [5]): 1590 µM
16 | 16 (≈ 41.6 µM) | – | – | CC1(C)S[C@@H]2[C@H](NC(=O)[C@H](C(=O)O)c3ccsc3)C(=O)N2[C@H]1C(=O)O [Ticarcillin] | –
17 | – | – | – | sDacC (sPBP5/6) (Acinetobacter baumannii) (protein) ATVLSAPPELNNKSYVLMDYETGQILASKNENEKLAPASMTKMMTSYIIEQKLLKGELTENEQVRMNESAWCKGSSSESCMYVPLNGTATVLEMLRGIIIQSGNDASKAMAEHIAGNEGTFAHMMNQEAKRIGMTNTQFINSTGMPAEGHYSTAKDMAVLAQHIIKDSSKYYPIYSEKEFTFNGIKQGNRNALLYTDPSVDGLKTGHTDEAGYCLTTSSKRGPMRLISVIFGTPSMSERADQTRALLAWGFANFETANVQPANQVLAKAKVWFGKENEVQVGLAENFNVTMPKGKADGIKTQLVVQPNLNAPLQKGQVVGKLVASLDGKVIAEKPLVALKPVEEAGFF | Km [6]: 21.21 µM; kcat [6]: 12.2 s⁻¹; kcat/Km [6]: 570000 M⁻¹ s⁻¹; Km [7]: 12.19 µM; kcat [7]: 10 s⁻¹; kcat/Km [7]: 820000 M⁻¹ s⁻¹; Km [8]: 17.39 µM; kcat [8]: 5.35 s⁻¹; kcat/Km [8]: 310000 M⁻¹ s⁻¹; Km [9]: 21.09 µM; kcat [9]: 8.36 s⁻¹; kcat/Km [9]: 390000 M⁻¹ s⁻¹; Km (purified protein [10]): 6.09 ± 0.9 µM; kcat (purified protein [10]): 7.04 ± 1.1 s⁻¹; Km (purified protein [11]): 3.75 ± 0.4 µM; kcat (purified protein [11]): 7.52 ± 0.5 s⁻¹; Km (purified protein [12]): 12.47 ± 2.5 µM; kcat (purified protein [12]): 93.31 ± 9.0 s⁻¹; Km (purified protein [13]): 8.2 ± 1.4 µM; kcat (purified protein [13]): 65.81 ± 12.5 s⁻¹
